# Assay results taken from patent US20220249643A1, “ANTI-NEOPLASTIC COMBINED PHARMACEUTICAL COMPOSITION AND APPLICATION THEREOF” (priority 2019, published 2022).
# Entries after “also recorded” stand apart in the source; their conditions may differ. Like-named read-outs stand apart in the source and are kept apart here.
# Key:
# [1] = system: mouse Lewis lung carcinoma (LLC); format: in vivo, C57BL/6 mice; conditions: vs Con
# [2] = system: mouse Lewis lung carcinoma (LLC); format: in vivo, C57BL/6 mice; conditions: for Significance, survival (intergroup comparison): vs Con
# [3] = format: in vivo, C57BL/6 mice
# Source text: The effects of the chemotherapeutic agent and Plasmodium infection on the weight of tumor-bearing mice were observed.
# Plasmodium yoelii = experiment: Infection rate of Plasmodium (parasitemia) in tumor-bearing mice, Plasmodium yoelii; format: in vivo
# [4] = Example 5, CTX 20 mg/kg×3 ip day 6, 13, 20, Py day 7
# [5] = Example 6, CTX 20 mg/kg×3 ip day 6, 13, 20, Pc day 7
# [6] = Example 1, GEM 100 mg/kg ip on day 3
# [7] = Example 1, GEM 100 mg/kg ip on day 6
# [8] = Example 2, GEM divided 50 mg/kg ip day 6 and day 13
# [9] = Example 2, GEM single dose 100 mg/kg ip day 6
# [10] = Example 3, GEM 50 mg/kg ip day 6 and day 13, Py day 7
# [11] = Example 4, GEM 50 mg/kg ip day 6 and day 13, Pc day 7
# Protocol for Plasmodium chabaudi: (III) Preparation of thin blood film and microscopic examination: about 1-1.5 μL of blood was collected from tails of mice and smeared on slides so that a long tongue-shaped thin blood film with a length of 2.5 cm was prepared and blow-dried with a blower. The blood film was infiltrated with methanol for 1 min, stained with 1× Giemsa stain for 30 min, rinsed with tap water and blow-dried. The infection rate of Plasmodium was observed by a 100× oil immersion objective. Changes of the infection rate of Plasmodium were observed.
# (V) Inoculation of tumor-bearing mice: 7 days after tumor was subcutaneously inoculated, each mouse was inoculated with 0.2 mL of Plasmodium, that is, 5×10^5 Plasmodium parasites.
# (III) Statistics of the infection rate of Plasmodium: the infection rate of Plasmodium was evaluated by a percentage of red blood cells infected with Plasmodium in mice, where the calculation formula was (the number of red blood cells infected with Plasmodium/a total number of red blood cells)×100%. Specific procedures were as follows: blood was taken from tail veins and smeared on a slide, fixed with methanol, and stained with Giemsa stain. The number of red blood cells infected with Plasmodium and the total number of red blood cells were observed under a microscope. The total number of red blood cells was about 1000.
smiles,measurement,setting,value
"O=P1(N(CCCl)CCCl)NCCCO1 (centres unmarked) [CTX, cyclophosphamide]",effect on Plasmodium infection,"Plasmodium chabaudi; Example 6, CTX 20 mg/kg×3 ip",relatively small effect on Plasmodium chabaudi
same,"Significance, tumor growth (intergroup comparison)",[1]; [4],* (“*” represents p<0.05)
same,"Significance, tumor growth (intergroup comparison)",[1]; [5],* (“*” represents p<0.05)
same,median survival time,[2]; [4],37 days
same,"Significance, survival (intergroup comparison)",[2]; Example 5,** (“**” represents p<0.01)
same,median survival time,[2]; [5],39.5 days
same,"Significance, survival (intergroup comparison)",[2]; Example 6,* (“*” represents p<0.05)
same,effect on weight of tumor-bearing mice,"[3]; Example 5, CTX 20 mg/kg×3 ip, Py day 7",affected little
same,effect on weight of tumor-bearing mice,"[3]; Example 6, CTX 20 mg/kg×3 ip, Pc day 7",affected little
same,effect on Plasmodium infection,"Plasmodium yoelii; Example 5, CTX 20 mg/kg×3 ip",relatively small effect on Plasmodium
"[NH2][Pt]([NH2])([Cl])[Cl] [DDP, cis-platinum]","Significance, tumor growth (intergroup comparison)","[1]; Example 8, DDP 1 mg/kg×7 ip every two days from day 7, Py day 7",** (“**” represents p<0.01)
same,median survival time,"[2]; Example 8, DDP 1 mg/kg×7 ip, Py day 7",30 days
same,effect on Plasmodium infection (parasitemia),"Plasmodium yoelii; Example 8, DDP 1 mg/kg×7 ip, vs single Plasmodium yoelii group",inhibitory effect on Plasmodium
"Nc1ccn([C@@H]2O[C@H](CO)[C@@H](O)C2(F)F)c(=O)n1 [GEM, gemcitabine]",effect on Plasmodium infection,"Plasmodium chabaudi; Example 4, GEM 50 mg/kg ip day 6 and day 13",inhibitory effect on Plasmodium chabaudi but will not eliminate Plasmodium
same,"Significance, tumor growth (intergroup comparison)",[1]; [6],** (“**” represents p<0.01)
same,"Significance, tumor growth (intergroup comparison)",[1]; [7],** (“**” represents p<0.01)
same,"Significance, tumor growth (intergroup comparison)",[1]; [8],** (“**” represents p<0.01)
same,"Significance, tumor growth (intergroup comparison)",[1]; [9],** (“**” represents p<0.01)
same,"Significance, tumor growth (intergroup comparison)",[1]; [10],** (“**” represents p<0.01)
same,"Significance, tumor growth (intergroup comparison)",[1]; [11],** (“**” represents p<0.01)
same,median survival time,[2]; [6],34.5 days
same,median survival time,[2]; [7],33 days
same,"Significance, survival (intergroup comparison)",[2]; [6],* (“*” represents p<0.05)
same,"Significance, survival (intergroup comparison)",[2]; [7],** (“**” represents p<0.01)
same,median survival time,[2]; [8],38.5 days
same,median survival time,[2]; [9],33 days
same,median survival time,[2]; [10],36 days
same,"Significance, survival (intergroup comparison)",[2]; [10],** (“**” represents p<0.01)
same,median survival time,[2]; [11],35 days
same,effect on weight of tumor-bearing mice,"[3]; Example 1, GEM 100 mg/kg ip, Py day 7",affected little
same,effect on weight of tumor-bearing mice,"[3]; Example 2, GEM total 100 mg/kg ip, Py day 7",affected little
same,effect on weight of tumor-bearing mice,[3]; [10],affected little
same,effect on weight of tumor-bearing mice,[3]; [11],affected little
same,effect on Plasmodium infection,"Plasmodium yoelii; Example 1, GEM 100 mg/kg ip day 3 or day 6",certain inhibitory effect on Plasmodium yoelii but will not eliminate Plasmodium
same,effect on Plasmodium infection,"Plasmodium yoelii; Example 2, GEM single dose or divided doses, total 100 mg/kg",certain inhibitory effect on Plasmodium
same,effect on Plasmodium infection,"Plasmodium yoelii; Example 3, GEM 50 mg/kg ip day 6 and day 13",certain inhibitory effect on Plasmodium yoelii but will not eliminate Plasmodium yoelii
"Cc1c(O)cccc1C(=O)N[C@@H](CSc1ccccc1)[C@H](O)CN1C[C@H]2CCCC[C@H]2C[C@H]1C(=O)NC(C)(C)C [NFV, nelfinavir]","Significance, tumor growth (intergroup comparison)","[1]; Example 12, NFV 400 mg/kg×10, intraperitoneal injection, from day 10, Py day 7",** (“**” represents p<0.01)
same,median survival time,"[2]; Example 12, NFV 400 mg/kg×10 from day 10, Py day 7",34 days
same,toxic and side effects on tumor-bearing mice,"[3]; Example 12, NFV 400 mg/kg×10",will not increase toxic and side effects on tumor-bearing mice
same,effect on weight of tumor-bearing mice,"[3]; Example 12, continuous administration of nelfinavir alone",relatively small effect on the weight of tumor-bearing mice
same,effect on Plasmodium infection,"Plasmodium yoelii; Example 12, NFV 400 mg/kg×10",relatively small effect on Plasmodium
"Nc1nc2[nH]cc(CCc3ccc(C(=O)N[C@@H](CCC(=O)O)C(=O)O)cc3)c2c(=O)[nH]1 [PEM, pemetrexed]","Significance, tumor growth (intergroup comparison)","[1]; Example 7, PEM 20 mg/kg×6 ip day 3, 7, 10, 14, 17, 21, Py day 7",** (“**” represents p<0.01)
same,median survival time,"[2]; Example 7, PEM 20 mg/kg×6 ip, Py day 7",32.5 days
same,effect on Plasmodium infection,"Plasmodium yoelii; Example 7, PEM 20 mg/kg×6 ip",relatively small effect on Plasmodium; also recorded: no inhibitory effect on Plasmodium yoelii
CC(=O)O[C@@]12CO[C@@H]1C[C@H](O)[C@@]1(C)C(=O)[C@H](O)C3=C(C)[C@@H](OC(=O)[C@H](O)[C@@H](NC(=O)OC(C)(C)C)c4ccccc4)C[C@@](O)([C@@H](OC(=O)c4ccccc4)[C@H]21)C3(C)C [docetaxel],effect on weight of tumor-bearing mice,"[3]; Example 10, in the combined therapy, DTX high dosage",very significant effect in reducing the weight of the tumor-bearing mice
same,effect on weight of tumor-bearing mice,"[3]; Example 10, in the combined therapy, DTX low dosage",relatively small effects
same,effect on weight of tumor-bearing mice,"[3]; Example 10, in the combined therapy, DTX medium dosage",relatively small effects
same,effect on Plasmodium infection,"Plasmodium yoelii; Example 10, DTX high dosage 2 mg/kg×3",significantly inhibit Plasmodium
same,effect on Plasmodium infection,"Plasmodium yoelii; Example 10, DTX low dosage 2.2 mg/kg×3",relatively small effect on Plasmodium
same,effect on Plasmodium infection,"Plasmodium yoelii; Example 10, DTX medium dosage 6.7 mg/kg×3",significantly inhibit Plasmodium
COc1cc([C@@H]2c3cc4c(cc3[C@@H](O[C@@H]3O[C@@H]5CO[C@@H](C)O[C@H]5[C@H](O)[C@H]3O)[C@H]3COC(=O)[C@H]23)OCO4)cc(OC)c1O [etoposide],effect on Plasmodium infection,"Plasmodium yoelii; Example 11, VP16 low and high dosage",obvious inhibitory effect on Plasmodium
CO[C@@]12[C@H](COC(N)=O)C3=C(C(=O)C(C)=C(N)C3=O)N1C[C@@H]1N[C@@H]12 [mitomycin],effect on weight of tumor-bearing mice,"[3]; Example 9, three combined treatment groups",affected little
same,effect on Plasmodium infection,"Plasmodium yoelii; Example 9, MMC low, medium, high dosage, the higher concentration, the more obvious",certain inhibitory effect on Plasmodium
